Reference: patent US7358263B2, “Fused bicyclic-substituted amines as histamine-3 receptor ligands” (Abbott Laboratories, priority 2006, dated 2008)

melting point: 70 to 72 °C
Structure (SMILES): C[C@@H]1CCCN1CCc1nc2cc(-c3ccc(C#N)cc3)ccc2o1 [Example 24E, 4-{2-[2-(2-(R)-methyl-pyrrolidin-1-yl)-ethyl]-benzooxazol-5-yl}-benzonitrile]
